Data from patent US11104648B2, “Pyrazole derivative” (Zhejiang Research Institute of Chemical Industry Co., Ltd., priority 2018, dated 2021).
Like-named read-outs stand apart in the source and are kept apart here.

How the values were obtained:
Assay type in all cases: in vivo
[1] = test system: adult Tetranychus cinnabarinus; test: Activity assay of adult Tetranychus cinnabarinus (whole-plant spray on bean seedlings); conditions: 48 h; for pest or weed control at 1.25 µg/mL: concentration 1.25 mg/L
Summary of the method: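 Whole plants sprayed after adult mite inoculation and initial census, using compound dissolved in DMF and made up with 1‰ Tween 80 water (DMF not above 10%). Mortality derived from survivor counts at 48 h after treatment. Each treatment run in triplicate.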

[2] = test system: Tetranychus cinnabarinus Nymphs; test: Activity assay of Tetranychus cinnabarinus nymphs (spray on broad bean leaves)
Summary of the method: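 Mortality, judged as no response to gentle touch, was scored 48 h after spraying Tetranychus cinnabarinus nymphs on broad bean leaves (eggs from females removed after 24 h). Test solutions: DMF-dissolved compound, ≤10% DMF, in 1‰ Tween 80; 26±2° C., 70%–80% RH, 16 h light; triplicate, blank control.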

[3] = test system: Eggs of Tetranychus Cinnabarinus; test: Activity assay of eggs of Tetranychus cinnabarinus (spray method, ovicidal); conditions: Tetranychus cinnabarinus; for pest or weed control at 2 µg/mL: concentration 2 mg/L
Summary of the method: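 Ovicidal spray test: compound dissolved in DMF, diluted with 1‰ Tween 80 (DMF ≤10%), sprayed on eggs laid during 24 h by females on broad bean leaves. Culture at 26±2° C, 70–80% RH, 16 h photoperiod; non-hatched eggs scored as dead when blank control hatched; three repeats.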

[4] = adult mites, parallel determination, read-out: Death rate (%)
[5] = read-out: adult mite-killing activity
[6] = concentration 2.5 mg/L, read-out: adult mite-killing activity
[7] = 48 h, concentration 2 mg/L, read-out: nymph-killing activity
[8] = 48 h, concentration 2.5 mg/L, read-out: nymph-killing activity
[9] = 48 h, nymphs, concentration 0.5 mg/L, parallel determination, read-out: Death rate (%)
[10] = spray, read-out: ovicidal activity
[11] = concentration 5 mg/L, spray, non-incubated eggs counted as dead, read-out: ovicidal activity
[12] = eggs, parallel determination, read-out: Death rate (%)
[13] = 48 h, read-out: nymph-killing activity
[14] = concentration 2.5 mg/L, 48 h, read-out: nymph-killing activity

| SMILES | pest or weed control at 1.25 µg/mL [1, 4] [%] | pest or weed control at 1.25 µg/mL [1, 5] [%] | pest or weed control at 2.5 µg/mL [1, 6] [%] | pest or weed control at 2 µg/mL [2, 7] [%] | pest or weed control at 2.5 µg/mL [2, 8] [%] | pest or weed control at 0.5 µg/mL [2, 9] [%] | pest or weed control at 2 µg/mL [3, 10] [%] | pest or weed control at 5 µg/mL [3, 11] [%] | pest or weed control at 2 µg/mL [3, 12] [%] | pest or weed control at 2.5 µg/mL [1, 5] [%] | pest or weed control at 2.5 µg/mL [2, 13] [%] | pest or weed control at 5 µg/mL ([3]; read-out: ovicidal activity) [%] | pest or weed control at 2.5 µg/mL [2, 14] [%] |
| --- | --- | --- | --- | --- | --- | --- | --- | --- | --- | --- | --- | --- | --- |
| CCn1nc(C)cc1/C(OCOC(C)=O)=C(\C#N)c1ccc(C(C)(C)C)cc1 [Compound 226] | 96 | ≥ 90 | ≥ 90 | ≥ 90 | ≥ 95 | 90 | ≥ 90 | ≥ 90 | 100 | – | – | – | – |
| CCC(=O)OCO/C(=C(/C#N)c1ccc(C(C)(C)C)cc1)c1cc(C)nn1CC [Compound 227] | 98 | ≥ 90 | ≥ 90 | ≥ 90 | ≥ 95 | 94 | ≥ 90 | ≥ 90 | 97 | – | – | – | – |
| CCCC(=O)OCO/C(=C(/C#N)c1ccc(C(C)(C)C)cc1)c1cc(C)nn1CC [Compound 228] | – | – | ≥ 90 | – | ≥ 95 | – | – | ≥ 90 | – | – | – | – | – |
| CCn1nc(C)cc1/C(OCOC(=O)C(C)C)=C(\C#N)c1ccc(C(C)(C)C)cc1 [Compound 229] | – | – | ≥ 90 | – | ≥ 95 | – | – | ≥ 90 | – | – | – | – | – |
| CCn1nc(C)cc1/C(OCOC(=O)C(C)(C)C)=C(\C#N)c1ccc(C(C)(C)C)cc1 [Compound 230] | 100 | ≥ 90 | ≥ 90 | ≥ 90 | ≥ 95 | 98 | ≥ 90 | ≥ 90 | 100 | – | – | – | – |
| CCCCC(=O)OCO/C(=C(/C#N)c1ccc(C(C)(C)C)cc1)c1cc(C)nn1CC [Compound 231] | – | – | ≥ 90 | – | ≥ 95 | – | – | ≥ 90 | – | – | – | – | – |
| CCn1nc(C)cc1/C(OCOC(=O)CC(C)C)=C(\C#N)c1ccc(C(C)(C)C)cc1 [Compound 232] | – | – | ≥ 90 | – | ≥ 95 | – | – | ≥ 90 | – | – | – | – | – |
| CCn1nc(C)cc1/C(OCOC(=O)COC)=C(\C#N)c1ccc(C(C)(C)C)cc1 [Compound 233] | – | – | ≥ 90 | – | ≥ 95 | – | – | ≥ 90 | – | – | – | – | – |
| CCn1nc(C)cc1/C(OCOC(=O)C1CC1)=C(\C#N)c1ccc(C(C)(C)C)cc1 [Compound 234] | 100 | ≥ 90 | ≥ 90 | ≥ 90 | ≥ 95 | 96 | ≥ 90 | ≥ 90 | 100 | – | – | – | – |
| CCn1nc(C)cc1/C(OCOC(=O)CSC)=C(\C#N)c1ccc(C(C)(C)C)cc1 [Compound 235] | – | – | ≥ 90 | – | ≥ 95 | – | – | ≥ 90 | – | – | – | – | – |
| CCn1nc(C)cc1/C(OCOC(=O)C1CCCCC1)=C(\C#N)c1ccc(C(C)(C)C)cc1 [Compound 236] | – | – | ≥ 90 | – | ≥ 95 | – | – | ≥ 90 | – | – | – | – | – |
| CCn1nc(C)cc1/C(OCOC(=O)CF)=C(\C#N)c1ccc(C(C)(C)C)cc1 [Compound 237] | – | – | – | – | – | – | – | – | – | ≥ 90 | ≥ 95 | ≥ 90 | – |
| CCn1nc(C)cc1/C(OCOC(=O)C(F)(F)F)=C(\C#N)c1ccc(C(C)(C)C)cc1 [Compound 238] | – | – | ≥ 90 | – | ≥ 95 | – | – | ≥ 90 | – | – | – | – | – |
| CCn1nc(C)cc1/C(OCOC(=O)c1ccccc1)=C(\C#N)c1ccc(C(C)(C)C)cc1 [Compound 239] | – | – | ≥ 90 | – | ≥ 95 | – | – | ≥ 90 | – | – | – | – | – |
| CCn1nc(C)cc1/C(OCOC(=O)Cc1ccccc1)=C(\C#N)c1ccc(C(C)(C)C)cc1 [Compound 240] | – | – | ≥ 90 | – | – | – | – | ≥ 90 | – | – | – | – | ≥ 95 |
| CCn1nc(C)cc1/C(OCOC(=O)C(C)(C)CC)=C(\C#N)c1ccc(C(C)(C)C)cc1 [Compound 241] | 100 | – | ≥ 90 | – | ≥ 95 | 100 | – | ≥ 90 | 100 | – | – | – | – |

| SMILES | pest or weed control at 1.25 µg/mL [1, 4] [%] | pest or weed control at 1.25 µg/mL [1, 5] [%] | pest or weed control at 2.5 µg/mL [1, 6] [%] | pest or weed control at 2 µg/mL [2, 7] [%] | pest or weed control at 2.5 µg/mL [2, 8] [%] | pest or weed control at 0.5 µg/mL [2, 9] [%] | pest or weed control at 2 µg/mL [3, 10] [%] | pest or weed control at 5 µg/mL [3, 11] [%] | pest or weed control at 2 µg/mL [3, 12] [%] | pest or weed control at 2.5 µg/mL [1, 5] [%] | pest or weed control at 2.5 µg/mL [2, 13] [%] | pest or weed control at 5 µg/mL ([3]; read-out: ovicidal activity) [%] | pest or weed control at 2.5 µg/mL [2, 14] [%] |
| --- | --- | --- | --- | --- | --- | --- | --- | --- | --- | --- | --- | --- | --- |
| C=CC(=O)OCO/C(=C(/C#N)c1ccc(C(C)(C)C)cc1)c1cc(C)nn1CC [Compound 242] | – | – | ≥ 90 | – | ≥ 95 | – | – | ≥ 90 | – | – | – | – | – |
| CCn1nc(C)cc1/C(OC(C)OC(C)=O)=C(\C#N)c1ccc(C(C)(C)C)cc1 (stereo not drawn) [Compound 251] | 100 | ≥ 90 | ≥ 90 | ≥ 90 | ≥ 95 | 100 | ≥ 90 | ≥ 90 | 100 | – | – | – | – |
| CCC(=O)OC(C)O/C(=C(/C#N)c1ccc(C(C)(C)C)cc1)c1cc(C)nn1CC (stereo not drawn) [Compound 252] | 100 | ≥ 90 | ≥ 90 | ≥ 90 | ≥ 95 | 100 | ≥ 90 | ≥ 90 | 100 | – | – | – | – |
| CCCC(=O)OC(C)O/C(=C(/C#N)c1ccc(C(C)(C)C)cc1)c1cc(C)nn1CC (stereo not drawn) [Compound 253] | – | – | ≥ 90 | – | ≥ 95 | – | – | ≥ 90 | – | – | – | – | – |
| CCn1nc(C)cc1/C(OC(C)OC(=O)C(C)C)=C(\C#N)c1ccc(C(C)(C)C)cc1 (stereo not drawn) [Compound 254] | 97 | ≥ 90 | ≥ 90 | ≥ 90 | ≥ 95 | 96 | ≥ 90 | ≥ 90 | 99 | – | – | – | – |
| CCn1nc(C)cc1/C(OC(C)OC(=O)C(C)(C)C)=C(\C#N)c1ccc(C(C)(C)C)cc1 (stereo not drawn) [Compound 255] | 95 | ≥ 90 | ≥ 90 | ≥ 90 | ≥ 95 | 95 | ≥ 90 | ≥ 90 | 96 | – | – | – | – |
| CCCCC(=O)OC(C)O/C(=C(/C#N)c1ccc(C(C)(C)C)cc1)c1cc(C)nn1CC (stereo not drawn) [Compound 256] | – | – | ≥ 90 | – | ≥ 95 | – | – | ≥ 90 | – | – | – | – | – |
| CCn1nc(C)cc1/C(OC(C)OC(=O)COC)=C(\C#N)c1ccc(C(C)(C)C)cc1 (stereo not drawn) [Compound 258] | – | – | ≥ 90 | – | ≥ 95 | – | – | ≥ 90 | – | – | – | – | – |
| CCn1nc(C)cc1/C(OC(C)OC(=O)C1CC1)=C(\C#N)c1ccc(C(C)(C)C)cc1 (stereo not drawn) [Compound 259] | – | ≥ 90 | ≥ 90 | ≥ 90 | ≥ 95 | – | ≥ 90 | ≥ 90 | – | – | – | – | – |
| CCn1nc(C)cc1/C(OC(C)OC(=O)CSC)=C(\C#N)c1ccc(C(C)(C)C)cc1 (stereo not drawn) [Compound 260] | – | – | ≥ 90 | – | ≥ 95 | – | – | ≥ 90 | – | – | – | – | – |
| CCn1nc(C)cc1/C(OC(C)OC(=O)C1CCCCC1)=C(\C#N)c1ccc(C(C)(C)C)cc1 (stereo not drawn) [Compound 261] | – | – | ≥ 90 | – | ≥ 95 | – | – | ≥ 90 | – | – | – | – | – |
| CCn1nc(C)cc1/C(OC(C)OC(=O)CF)=C(\C#N)c1ccc(C(C)(C)C)cc1 (stereo not drawn) [Compound 262] | – | – | – | – | – | – | – | – | – | ≥ 90 | ≥ 95 | ≥ 90 | – |
| CCn1nc(C)cc1/C(OC(C)OC(=O)C(F)(F)F)=C(\C#N)c1ccc(C(C)(C)C)cc1 (stereo not drawn) [Compound 263] | – | – | ≥ 90 | – | ≥ 95 | – | – | ≥ 90 | – | – | – | – | – |
| CCn1nc(C)cc1/C(OC(C)OC(=O)c1ccccc1)=C(\C#N)c1ccc(C(C)(C)C)cc1 (stereo not drawn) [Compound 264] | – | – | ≥ 90 | – | ≥ 95 | – | – | ≥ 90 | – | – | – | – | – |
| CCn1nc(C)cc1/C(OC(C)OC(=O)Cc1ccccc1)=C(\C#N)c1ccc(C(C)(C)C)cc1 (stereo not drawn) [Compound 265] | – | – | ≥ 90 | – | – | – | – | ≥ 90 | – | – | – | – | ≥ 95 |
| CCn1nc(C)cc1/C(OC(C)OC(=O)C(C)(C)CC)=C(\C#N)c1ccc(C(C)(C)C)cc1 (stereo not drawn) [Compound 266] | – | – | ≥ 90 | – | ≥ 95 | – | – | ≥ 90 | – | – | – | – | – |
